Source: patent publication US10167262B2, “Herbicidal substituted 3-arylpyrazoles” (FMC CORPORATION, priority 2014, dated 2019)

What was measured:
Test in all cases: Test A pre-/postemergence greenhouse herbicide test, visual injury rating 0-100
Format in all cases: in vivo
[1] = system: pigweed (Amaranthus retroflexus)
Description: (§1) Seeds of plant species selected from barnyardgrass (Echinochloa crus-galli), large (Lg) crabgrass (Digitaria sanguinalis), giant foxtail (Setaria faberii), morningglory (Ipomoea spp.), pigweed (Amaranthus retroflexus), velvetleaf (Abutilon theophrasti), wheat (Triticum aestivum), and corn (Zea mays) were planted into a blend of loam soil and sand and treated preemergence with a directed soil spray using test chemicals formulated in a non-phytotoxic solvent mixture which included a surfactant. At the same time these species were also treated with postemergence applications of test chemicals formulated in the same manner. Plants ranged in height from 2 to 10 cm and were in the one- to two-leaf stage for the postemergence treatment. Treated plants and untreated controls were maintained in a greenhouse for approximately 10 days, after which time all treated plants were compared to untreated controls and visually evaluated for injury. Plant response ratings, summarized in Table A, are based on a 0 to 100 scale where 0 is no effect and 100 is complete control. A dash (-) response means no test result.

[2] = system: large (Lg) crabgrass (Digitaria sanguinalis)
Description: as §1

[3] = system: velvetleaf (Abutilon theophrasti)
Description: as §1

corn (Zea mays) = system: corn (Zea mays)
Description: as §1

[4] = system: wheat (Triticum aestivum)
Description: as §1

[5] = system: giant foxtail (Setaria faberii)
Description: as §1

[6] = system: morningglory (Ipomoea spp.)
Description: as §1

[7] = system: barnyardgrass (Echinochloa crus-galli)
Description: as §1

For `O=C(c1ccccc1)c1cn(CC(F)F)nc1-c1cc(Cl)cc(Cl)c1` [Compound 59], the “Plant response rating (0 to 100 scale), Pigweed” value ([1]; Postemergence, 125 g ai/ha) was 60, the “Plant response rating (0 to 100 scale), Pigweed” value ([1]; Postemergence, 500 g ai/ha) was 80 and the “Pigweed plant response rating (0 = no effect, 100 = complete control)” value ([1]; Preemergence, 125 g ai/ha) was 0. For the same molecule, the “Plant response rating (0 to 100 scale), Pigweed” value ([1]; Preemergence, 500 g ai/ha) was 30, the “Plant response rating (0 to 100 scale), Crabgrass, Large” value ([2]; Postemergence, 125 g ai/ha) was 0 and the “Plant response rating (0 to 100 scale), Crabgrass, Large” value ([2]; Postemergence, 500 g ai/ha) was 0. The “Crabgrass, Large plant response rating (0 = no effect, 100 = complete control)” value ([2]; Preemergence, 125 g ai/ha) was 0, the “Plant response rating (0 to 100 scale), Crabgrass, Large” value ([2]; Preemergence, 500 g ai/ha) was 0 and the “Plant response rating (0 to 100 scale), Velvetleaf” value ([3]; Postemergence, 125 g ai/ha) was 50. For the same molecule, the “Plant response rating (0 to 100 scale), Velvetleaf” value ([3]; Postemergence, 500 g ai/ha) was 70, the “Velvetleaf plant response rating (0 = no effect, 100 = complete control)” value ([3]; Preemergence, 125 g ai/ha) was 0 and the “Plant response rating (0 to 100 scale), Velvetleaf” value ([3]; Preemergence, 500 g ai/ha) was 40. The “Plant response rating (0 to 100 scale), Corn” value (corn (Zea mays); Postemergence, 125 g ai/ha) was 0, the “Plant response rating (0 to 100 scale), Corn” value (corn (Zea mays); Postemergence, 500 g ai/ha) was 0 and the “Corn plant response rating (0 = no effect, 100 = complete control)” value (corn (Zea mays); Preemergence, 125 g ai/ha) was 0. The “Plant response rating (0 to 100 scale), Corn” value (corn (Zea mays); Preemergence, 500 g ai/ha) was 0, the “Plant response rating (0 to 100 scale), Wheat” value ([4]; Postemergence, 125 g ai/ha) was 0 and the “Plant response rating (0 to 100 scale), Wheat” value ([4]; Postemergence, 500 g ai/ha) was 0. For the same molecule, the “Wheat plant response rating (0 = no effect, 100 = complete control)” value ([4]; Preemergence, 125 g ai/ha) was 0, the “Plant response rating (0 to 100 scale), Foxtail, Giant” value ([5]; Postemergence, 125 g ai/ha) was 0 and the “Plant response rating (0 to 100 scale), Foxtail, Giant” value ([5]; Postemergence, 500 g ai/ha) was 0. The “Foxtail, Giant plant response rating (0 = no effect, 100 = complete control)” value ([5]; Preemergence, 125 g ai/ha) was 0, the “Plant response rating (0 to 100 scale), Foxtail, Giant” value ([5]; Preemergence, 500 g ai/ha) was 0 and the “Plant response rating (0 to 100 scale), Morningglory” value ([6]; Postemergence, 125 g ai/ha) was 0. The “Plant response rating (0 to 100 scale), Morningglory” value ([6]; Postemergence, 500 g ai/ha) was 0, the “Morningglory plant response rating (0 = no effect, 100 = complete control)” value ([6]; Preemergence, 125 g ai/ha) was 0 and the “Plant response rating (0 to 100 scale), Morningglory” value ([6]; Preemergence, 500 g ai/ha) was 0. The “Plant response rating (0 to 100 scale), Barnyardgrass” value ([7]; Postemergence, 125 g ai/ha) was 0, the “Plant response rating (0 to 100 scale), Barnyardgrass” value ([7]; Postemergence, 500 g ai/ha) was 0 and the “Barnyardgrass plant response rating (0 = no effect, 100 = complete control)” value ([7]; Preemergence, 125 g ai/ha) was 0. For the same molecule, the “Plant response rating (0 to 100 scale), Barnyardgrass” value ([7]; Preemergence, 500 g ai/ha) was 0.
With `Clc1cc(Cl)cc(-c2n[nH]cc2C2(c3ccccc3)SCCCS2)c1` [Compound 63] the “Plant response rating (0 to 100 scale), Pigweed” value ([1]; Postemergence, 125 g ai/ha) was 20, the “Plant response rating (0 to 100 scale), Pigweed” value ([1]; Postemergence, 500 g ai/ha) was 80 and the “Pigweed plant response rating (0 = no effect, 100 = complete control)” value ([1]; Preemergence, 125 g ai/ha) was 0. For the same molecule, the “Plant response rating (0 to 100 scale), Pigweed” value ([1]; Preemergence, 500 g ai/ha) was 60, the “Plant response rating (0 to 100 scale), Crabgrass, Large” value ([2]; Postemergence, 125 g ai/ha) was 0 and the “Plant response rating (0 to 100 scale), Crabgrass, Large” value ([2]; Postemergence, 500 g ai/ha) was 0. The “Crabgrass, Large plant response rating (0 = no effect, 100 = complete control)” value ([2]; Preemergence, 125 g ai/ha) was 0, the “Plant response rating (0 to 100 scale), Crabgrass, Large” value ([2]; Preemergence, 500 g ai/ha) was 0 and the “Plant response rating (0 to 100 scale), Velvetleaf” value ([3]; Postemergence, 125 g ai/ha) was 10. For the same molecule, the “Plant response rating (0 to 100 scale), Velvetleaf” value ([3]; Postemergence, 500 g ai/ha) was 60, the “Velvetleaf plant response rating (0 = no effect, 100 = complete control)” value ([3]; Preemergence, 125 g ai/ha) was 0 and the “Plant response rating (0 to 100 scale), Velvetleaf” value ([3]; Preemergence, 500 g ai/ha) was 0. The “Plant response rating (0 to 100 scale), Corn” value (corn (Zea mays); Postemergence, 125 g ai/ha) was 0, the “Plant response rating (0 to 100 scale), Corn” value (corn (Zea mays); Postemergence, 500 g ai/ha) was 0 and the “Corn plant response rating (0 = no effect, 100 = complete control)” value (corn (Zea mays); Preemergence, 125 g ai/ha) was 0. For the same molecule, the “Plant response rating (0 to 100 scale), Corn” value (corn (Zea mays); Preemergence, 500 g ai/ha) was 0, the “Plant response rating (0 to 100 scale), Wheat” value ([4]; Postemergence, 125 g ai/ha) was 0 and the “Plant response rating (0 to 100 scale), Wheat” value ([4]; Postemergence, 500 g ai/ha) was 0. The “Wheat plant response rating (0 = no effect, 100 = complete control)” value ([4]; Preemergence, 125 g ai/ha) was 0, the “Plant response rating (0 to 100 scale), Foxtail, Giant” value ([5]; Postemergence, 125 g ai/ha) was 0 and the “Plant response rating (0 to 100 scale), Foxtail, Giant” value ([5]; Postemergence, 500 g ai/ha) was 0. For the same molecule, the “Foxtail, Giant plant response rating (0 = no effect, 100 = complete control)” value ([5]; Preemergence, 125 g ai/ha) was 0, the “Plant response rating (0 to 100 scale), Foxtail, Giant” value ([5]; Preemergence, 500 g ai/ha) was 0 and the “Plant response rating (0 to 100 scale), Morningglory” value ([6]; Postemergence, 125 g ai/ha) was 0. The “Plant response rating (0 to 100 scale), Morningglory” value ([6]; Postemergence, 500 g ai/ha) was 0, the “Morningglory plant response rating (0 = no effect, 100 = complete control)” value ([6]; Preemergence, 125 g ai/ha) was 0 and the “Plant response rating (0 to 100 scale), Morningglory” value ([6]; Preemergence, 500 g ai/ha) was 0. For the same molecule, the “Plant response rating (0 to 100 scale), Barnyardgrass” value ([7]; Postemergence, 125 g ai/ha) was 0, the “Plant response rating (0 to 100 scale), Barnyardgrass” value ([7]; Postemergence, 500 g ai/ha) was 0 and the “Barnyardgrass plant response rating (0 = no effect, 100 = complete control)” value ([7]; Preemergence, 125 g ai/ha) was 0. The “Plant response rating (0 to 100 scale), Barnyardgrass” value ([7]; Preemergence, 500 g ai/ha) was 0.
`CON=C(c1ccccc1)c1c[nH]nc1-c1cc(Cl)cc(Cl)c1` [Compound 64] was tested, and the “Plant response rating (0 to 100 scale), Pigweed” value ([1]; Postemergence, 1000 g ai/ha) was 80, the “Plant response rating (0 to 100 scale), Pigweed” value ([1]; Preemergence, 1000 g ai/ha) was 0 and the “Plant response rating (0 to 100 scale), Crabgrass, Large” value ([2]; Postemergence, 1000 g ai/ha) was 0. The “Plant response rating (0 to 100 scale), Crabgrass, Large” value ([2]; Preemergence, 1000 g ai/ha) was 0, the “Plant response rating (0 to 100 scale), Velvetleaf” value ([3]; Postemergence, 1000 g ai/ha) was 80 and the “Plant response rating (0 to 100 scale), Velvetleaf” value ([3]; Preemergence, 1000 g ai/ha) was 0. For the same molecule, the “Plant response rating (0 to 100 scale), Corn” value (corn (Zea mays); Postemergence, 1000 g ai/ha) was 0, the “Plant response rating (0 to 100 scale), Corn” value (corn (Zea mays); Preemergence, 1000 g ai/ha) was 0 and the “Plant response rating (0 to 100 scale), Wheat” value ([4]; Postemergence, 1000 g ai/ha) was 0. The “Plant response rating (0 to 100 scale), Wheat” value ([4]; Preemergence, 1000 g ai/ha) was 0, the “Plant response rating (0 to 100 scale), Foxtail, Giant” value ([5]; Postemergence, 1000 g ai/ha) was 0 and the “Plant response rating (0 to 100 scale), Foxtail, Giant” value ([5]; Preemergence, 1000 g ai/ha) was 0. The “Plant response rating (0 to 100 scale), Morningglory” value ([6]; Postemergence, 1000 g ai/ha) was 0, the “Plant response rating (0 to 100 scale), Morningglory” value ([6]; Preemergence, 1000 g ai/ha) was 0 and the “Plant response rating (0 to 100 scale), Barnyardgrass” value ([7]; Postemergence, 1000 g ai/ha) was 0. For the same molecule, the “Plant response rating (0 to 100 scale), Barnyardgrass” value ([7]; Preemergence, 1000 g ai/ha) was 0.
For `N=C(c1ccccc1)c1c[nH]nc1-c1cc(Cl)cc(Cl)c1` [Compound 68], the “Plant response rating (0 to 100 scale), Pigweed” value ([1]; Postemergence, 1000 g ai/ha) was 100, the “Plant response rating (0 to 100 scale), Pigweed” value ([1]; Preemergence, 1000 g ai/ha) was 100 and the “Plant response rating (0 to 100 scale), Crabgrass, Large” value ([2]; Postemergence, 1000 g ai/ha) was 0. The “Plant response rating (0 to 100 scale), Crabgrass, Large” value ([2]; Preemergence, 1000 g ai/ha) was 0, the “Plant response rating (0 to 100 scale), Velvetleaf” value ([3]; Postemergence, 1000 g ai/ha) was 90 and the “Plant response rating (0 to 100 scale), Velvetleaf” value ([3]; Preemergence, 1000 g ai/ha) was 100. For the same molecule, the “Plant response rating (0 to 100 scale), Corn” value (corn (Zea mays); Postemergence, 1000 g ai/ha) was 0, the “Plant response rating (0 to 100 scale), Corn” value (corn (Zea mays); Preemergence, 1000 g ai/ha) was 0 and the “Plant response rating (0 to 100 scale), Wheat” value ([4]; Postemergence, 1000 g ai/ha) was 0. For the same molecule, the “Plant response rating (0 to 100 scale), Wheat” value ([4]; Preemergence, 1000 g ai/ha) was 0, the “Plant response rating (0 to 100 scale), Foxtail, Giant” value ([5]; Postemergence, 1000 g ai/ha) was 0 and the “Plant response rating (0 to 100 scale), Foxtail, Giant” value ([5]; Preemergence, 1000 g ai/ha) was 0. For the same molecule, the “Plant response rating (0 to 100 scale), Morningglory” value ([6]; Postemergence, 1000 g ai/ha) was 0, the “Plant response rating (0 to 100 scale), Morningglory” value ([6]; Preemergence, 1000 g ai/ha) was 0 and the “Plant response rating (0 to 100 scale), Barnyardgrass” value ([7]; Postemergence, 1000 g ai/ha) was 0. The “Plant response rating (0 to 100 scale), Barnyardgrass” value ([7]; Preemergence, 1000 g ai/ha) was 0.
